Values quoted from earlier work, collected in patent publication US4196122A, “Analgesic polypeptide” (American Home Products Corporation, priority 1977, dated 1980).

Columns and labels:
opiate receptor = conditions: brain homogenates
rats = conditions: injection in the brain ventricle in rats; fully reversible by naloxone

Row | Substance | inhibition of stereospecific receptor binding of 3H-naloxone (opiate receptor) | analgesia (rats)
1 | H-Tyr-Gly-Gly-Phe-Leu-OH [leucine-enkephalin] | inhibit the stereospecific receptor binding | induce a profound analgesia
2 | H-Tyr-Gly-Gly-Phe-Met-OH [methionine-enkephalin] | inhibit the stereospecific receptor binding | induce a profound analgesia
